{"source": "ChEMBL document CHEMBL3217562", "about": "“N-Substituted salicylamides as selective malaria parasite dihydroorotate dehydrogenase inhibitors” (Medchemcomm, 2011)", "key": {"[1]": {"target": "T1, Dihydroorotate dehydrogenase (quinone), mitochondrial (Homo sapiens, UniProt Q02127)", "T1 sequence (Q02127 whole entry, the tested form may be a part)": "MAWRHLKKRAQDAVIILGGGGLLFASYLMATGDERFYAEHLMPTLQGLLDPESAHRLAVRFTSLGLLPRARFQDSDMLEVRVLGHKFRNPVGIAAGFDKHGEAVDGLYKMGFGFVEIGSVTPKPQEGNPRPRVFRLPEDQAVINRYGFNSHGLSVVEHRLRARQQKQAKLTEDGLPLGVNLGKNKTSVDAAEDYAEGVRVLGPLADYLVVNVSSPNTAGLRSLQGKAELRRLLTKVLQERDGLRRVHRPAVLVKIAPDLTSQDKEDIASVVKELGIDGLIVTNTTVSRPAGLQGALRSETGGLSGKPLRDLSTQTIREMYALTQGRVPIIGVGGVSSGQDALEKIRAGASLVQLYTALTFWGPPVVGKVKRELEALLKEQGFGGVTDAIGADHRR", "experiment": "Inhibition of N-terminal truncated human recombinant DHODH assessed as ubiquinone reduction to 2,6-dichloroindophenol at 10 uM by spectrophotometric analysis relative to control"}, "[2]": {"target": "T2, Dihydroorotate dehydrogenase (Plasmodium falciparum) (UniProt Q54A96)", "T2 sequence (whole entry)": "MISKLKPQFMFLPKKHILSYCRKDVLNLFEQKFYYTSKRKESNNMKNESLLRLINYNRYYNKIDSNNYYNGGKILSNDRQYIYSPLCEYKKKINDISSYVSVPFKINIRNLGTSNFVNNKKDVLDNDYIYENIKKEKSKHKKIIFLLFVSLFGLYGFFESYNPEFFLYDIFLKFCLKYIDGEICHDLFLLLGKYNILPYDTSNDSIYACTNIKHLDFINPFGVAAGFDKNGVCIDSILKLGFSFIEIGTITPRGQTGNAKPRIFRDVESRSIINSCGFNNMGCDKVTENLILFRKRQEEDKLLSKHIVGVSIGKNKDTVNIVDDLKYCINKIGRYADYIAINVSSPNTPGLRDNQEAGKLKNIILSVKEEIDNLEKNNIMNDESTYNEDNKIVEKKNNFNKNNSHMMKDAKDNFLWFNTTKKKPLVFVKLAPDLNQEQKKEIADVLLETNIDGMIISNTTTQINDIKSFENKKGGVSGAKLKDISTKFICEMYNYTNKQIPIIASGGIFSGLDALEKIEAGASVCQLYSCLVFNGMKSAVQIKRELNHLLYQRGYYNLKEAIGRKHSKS", "experiment": "Inhibition of N-terminal truncated Plasmodium falciparum recombinant DHODH assessed as ubiquinone reduction to 2,6-dichloroindophenol at 10 uM by spectrophotometric analysis relative to control"}, "[3]": {"target": "T1, Dihydroorotate dehydrogenase (quinone), mitochondrial", "experiment": "Inhibition of N-terminal truncated human recombinant DHODH assessed as ubiquinone reduction to 2,6-dichloroindophenol by spectrophotometric analysis"}, "[4]": {"target": "T3, Dihydroorotate dehydrogenase (Plasmodium falciparum, UniProt Q54A96)", "T3 sequence (Q54A96 whole entry)": "T2 sequence (whole entry)", "experiment": "Inhibition of N-terminal truncated Plasmodium falciparum recombinant DHODH assessed as ubiquinone reduction to 2,6-dichloroindophenol by spectrophotometric analysis"}, "[5]": {"target": "T2, Dihydroorotate dehydrogenase (Plasmodium falciparum)", "experiment": "Inhibition of N-terminal truncated Plasmodium falciparum recombinant DHODH assessed as ubiquinone reduction to 2,6-dichloroindophenol at 100 uM by spectrophotometric analysis relative to control"}, "Plasmodium falciparum": {"tested_on": "Plasmodium falciparum", "experiment": "Antiplasmodial activity against Plasmodium falciparum 3D7 after 48 hrs by [3H]-hypoxanthine incorporation assay", "assay_type": "functional, organism-based"}, "[6]": {"experiment": "Selectivity ratio of IC50 for N-terminal truncated human recombinant DHODH to IC50 for N-terminal truncated Plasmodium falciparum recombinant DHODH"}}, "data": [{"smiles": "O=C(NCCc1ccccc1)c1c(O)cccc1O", "values": [{"measurement": "inhibition", "setting": "[1]", "result": 15, "unit": "%"}, {"measurement": "inhibition", "setting": "[2]", "result": 17, "unit": "%"}]}, {"smiles": "O=C(NCC(c1ccccc1)c1ccccc1)c1ccccc1O", "values": [{"measurement": "inhibition", "setting": "[1]", "result": 4, "unit": "%"}, {"measurement": "IC50", "setting": "[3]", "result": "> 200", "unit": "µM"}, {"measurement": "inhibition", "setting": "[2]", "result": 38, "unit": "%"}, {"measurement": "IC50", "setting": "[4]", "result": 21.2, "unit": "µM"}]}, {"smiles": "O=C(NCC(c1ccccc1)c1ccccc1)c1ccc(Cl)cc1O", "values": [{"measurement": "IC50", "setting": "[3]", "result": "> 200", "unit": "µM"}, {"measurement": "IC50", "setting": "[4]", "result": 10.3, "unit": "µM"}]}, {"smiles": "COc1ccc(O)c(C(=O)NCCc2ccccc2)c1", "values": [{"measurement": "inhibition", "setting": "[1]", "result": 8, "unit": "%"}, {"measurement": "inhibition", "setting": "[2]", "result": 8, "unit": "%"}]}, {"smiles": "Cc1ccc(O)c(C(=O)NCC(c2ccccc2)c2ccccc2)c1", "values": [{"measurement": "IC50", "setting": "[3]", "result": "> 200", "unit": "µM"}, {"measurement": "IC50", "setting": "[4]", "result": 14.4, "unit": "µM"}]}, {"smiles": "O=C(NCCC(c1ccccc1)c1ccccc1)c1ccccc1O", "values": [{"measurement": "inhibition", "setting": "[1]", "result": 21, "unit": "%"}, {"measurement": "inhibition", "setting": "[2]", "result": 22, "unit": "%"}]}, {"smiles": "O=C(NCC(c1ccccc1)c1ccccc1)c1ccc(CO)cc1O", "values": [{"measurement": "IC50", "setting": "[3]", "result": "> 200", "unit": "µM"}, {"measurement": "IC50", "setting": "[4]", "result": 46.2, "unit": "µM"}]}, {"smiles": "O=C(NCC(c1ccccc1)c1ccccc1)c1cc(Br)ccc1O", "values": [{"measurement": "IC50", "setting": "[3]", "result": "> 200", "unit": "µM"}, {"measurement": "IC50", "setting": "[4]", "result": 10.8, "unit": "µM"}]}, {"smiles": "O=C(NCC(c1ccccc1)c1ccccc1)c1cccc(F)c1O", "values": [{"measurement": "IC50", "setting": "[3]", "result": "> 200", "unit": "µM"}, {"measurement": "IC50", "setting": "[4]", "result": 26.1, "unit": "µM"}]}, {"smiles": "COc1cccc(C(=O)NCC(c2ccccc2)c2ccccc2)c1O", "values": [{"measurement": "IC50", "setting": "[3]", "result": "> 200", "unit": "µM"}, {"measurement": "IC50", "setting": "[4]", "result": "> 500", "unit": "µM"}]}, {"smiles": "CN(CCc1ccccc1)C(=O)c1ccccc1O", "values": [{"measurement": "inhibition", "setting": "[1]", "result": 3, "unit": "%"}, {"measurement": "inhibition", "setting": "[2]", "result": 3, "unit": "%"}]}, {"smiles": "O=C(NCCc1ccccc1)c1cc([N+](=O)[O-])ccc1O", "values": [{"measurement": "inhibition", "setting": "[1]", "result": 26, "unit": "%"}, {"measurement": "inhibition", "setting": "[2]", "result": 5, "unit": "%"}]}, {"smiles": "CC(CNC(=O)c1ccccc1O)c1ccccc1", "note": "(racemic)", "values": [{"measurement": "inhibition", "setting": "[1]", "result": 4, "unit": "%"}, {"measurement": "inhibition", "setting": "[2]", "result": 20, "unit": "%"}]}, {"smiles": "O=C(NCCCc1ccccc1)c1ccccc1O", "values": [{"measurement": "inhibition", "setting": "[1]", "result": 7, "unit": "%"}, {"measurement": "inhibition", "setting": "[2]", "result": 39, "unit": "%"}]}, {"smiles": "O=C(NCCc1ccccc1)c1ccc(Cl)cc1O", "values": [{"measurement": "inhibition", "setting": "[1]", "result": 8, "unit": "%"}, {"measurement": "inhibition", "setting": "[2]", "result": 16, "unit": "%"}]}, {"smiles": "O=C(NCCc1ccccc1)c1ccccc1O", "values": [{"measurement": "inhibition", "setting": "[1]", "result": 6, "unit": "%"}, {"measurement": "inhibition", "setting": "[5]", "result": 53, "unit": "%"}, {"measurement": "inhibition", "setting": "[2]", "result": 21, "unit": "%"}]}, {"smiles": "Cc1ccc(O)c(C(=O)NCCc2ccccc2)c1", "values": [{"measurement": "inhibition", "setting": "[1]", "result": 4, "unit": "%"}, {"measurement": "inhibition", "setting": "[2]", "result": 16, "unit": "%"}]}, {"smiles": "COc1cccc(O)c1C(=O)NCC(c1ccccc1)c1ccccc1", "values": [{"measurement": "IC50", "setting": "[4]", "result": "> 125", "unit": "µM"}]}, {"smiles": "COc1ccc(C(=O)NCC(c2ccccc2)c2ccccc2)c(O)c1", "values": [{"measurement": "IC50", "setting": "[3]", "result": "> 200", "unit": "µM"}, {"measurement": "IC50", "setting": "[4]", "result": 14, "unit": "µM"}]}, {"smiles": "COc1ccc(C(=O)NCCc2ccccc2)c(O)c1", "values": [{"measurement": "inhibition", "setting": "[1]", "result": 5, "unit": "%"}, {"measurement": "inhibition", "setting": "[2]", "result": 9, "unit": "%"}]}, {"smiles": "O=C(NCC(c1ccccc1)c1ccccc1)c1ccc(F)c(F)c1O", "values": [{"measurement": "EC50", "setting": "Plasmodium falciparum", "result": 100, "unit": "µM"}, {"measurement": "IC50", "setting": "[3]", "result": 130, "unit": "µM"}, {"measurement": "Ratio IC50", "setting": "[6]", "result": 18}, {"measurement": "IC50", "setting": "[4]", "result": 9.9, "unit": "µM"}]}, {"smiles": "O=C(NCCc1ccccc1)c1cccc(Cl)c1O", "values": [{"measurement": "inhibition", "setting": "[1]", "result": 8, "unit": "%"}, {"measurement": "inhibition", "setting": "[2]", "result": 10, "unit": "%"}]}, {"smiles": "O=Cc1ccc(C(=O)NCC(c2ccccc2)c2ccccc2)c(O)c1", "values": [{"measurement": "IC50", "setting": "[3]", "result": "> 200", "unit": "µM"}, {"measurement": "IC50", "setting": "[4]", "result": 16.5, "unit": "µM"}]}, {"smiles": "O=C(NCC(c1ccccc1)c1ccccc1)c1c(O)cccc1F", "values": [{"measurement": "IC50", "setting": "[4]", "result": "> 125", "unit": "µM"}]}, {"smiles": "COc1ccc(O)c(C(=O)NCC(c2ccccc2)c2ccccc2)c1", "values": [{"measurement": "IC50", "setting": "[3]", "result": "> 200", "unit": "µM"}, {"measurement": "IC50", "setting": "[4]", "result": 18.1, "unit": "µM"}]}, {"smiles": "O=C(NCCc1ccccc1)c1cc(Cl)ccc1O", "values": [{"measurement": "inhibition", "setting": "[1]", "result": 6, "unit": "%"}, {"measurement": "inhibition", "setting": "[2]", "result": 23, "unit": "%"}]}, {"smiles": "O=C(NCC(c1ccccc1)c1ccccc1)c1cccc(CO)c1O", "values": [{"measurement": "IC50", "setting": "[3]", "result": "> 200", "unit": "µM"}, {"measurement": "IC50", "setting": "[4]", "result": "> 100", "unit": "µM"}]}, {"smiles": "O=C(NCC(c1ccccc1)c1ccccc1)c1cc(Cl)cc(Cl)c1O", "values": [{"measurement": "EC50", "setting": "Plasmodium falciparum", "result": 170, "unit": "µM"}, {"measurement": "IC50", "setting": "[3]", "result": "> 200", "unit": "µM"}, {"measurement": "Ratio IC50", "setting": "[6]", "result": "> 20"}, {"measurement": "IC50", "setting": "[4]", "result": 7, "unit": "µM"}]}, {"smiles": "COc1cccc(C(=O)NCCc2ccccc2)c1O", "values": [{"measurement": "inhibition", "setting": "[1]", "result": 8, "unit": "%"}, {"measurement": "inhibition", "setting": "[2]", "result": 7, "unit": "%"}]}, {"smiles": "O=C(NCC(c1ccccc1)c1ccccc1)c1cc(Cl)ccc1O", "values": [{"measurement": "EC50", "setting": "Plasmodium falciparum", "result": 23, "unit": "µM"}, {"measurement": "IC50", "setting": "[3]", "result": "> 200", "unit": "µM"}, {"measurement": "Ratio IC50", "setting": "[6]", "result": 18}, {"measurement": "IC50", "setting": "[4]", "result": 9.1, "unit": "µM"}]}, {"smiles": "O=C(NCC(c1ccccc1)c1ccccc1)c1cccc(Cl)c1O", "values": [{"measurement": "IC50", "setting": "[3]", "result": "> 200", "unit": "µM"}, {"measurement": "IC50", "setting": "[4]", "result": 44.1, "unit": "µM"}]}, {"smiles": "O=C(NC(c1ccccc1)c1ccccc1)c1ccccc1O", "values": [{"measurement": "inhibition", "setting": "[1]", "result": 6, "unit": "%"}, {"measurement": "inhibition", "setting": "[2]", "result": 0, "unit": "%"}]}, {"smiles": "O=C(NCC(c1ccccc1)c1ccccc1)c1cc(CO)ccc1O", "values": [{"measurement": "EC50", "setting": "Plasmodium falciparum", "result": 53, "unit": "µM"}, {"measurement": "IC50", "setting": "[3]", "result": "> 200", "unit": "µM"}, {"measurement": "Ratio IC50", "setting": "[6]", "result": 18}, {"measurement": "IC50", "setting": "[4]", "result": 8, "unit": "µM"}]}, {"smiles": "O=C(NCc1ccccc1)c1ccccc1O", "values": [{"measurement": "inhibition", "setting": "[1]", "result": 4, "unit": "%"}, {"measurement": "inhibition", "setting": "[2]", "result": 16, "unit": "%"}]}]}
